Reference: PubChem BioAssay AID1996
Values after ≈ are worked out from the molar mass of the structure shown.

Settings: buffer; pH 7.4; 200.0 µM

Question: With `O=C(CN1C(=O)c2ccccc2S1(=O)=O)Nc1cccc(S(=O)(=O)N2CCOCC2)c1` as the compound, how does the solubility kinetic read?
Answer: > 69.8 µg/mL

Question: Which solubility kinetic does the source give for `O=C(NC1CCCC1)C1CCN(C(=O)c2ccc(Cl)cc2)CC1` here?
Answer: > 50.2 µg/mL

Question: With `O=C(CSc1nc2cc(Cl)ccc2o1)NC1CC1` as the compound, how does the solubility kinetic read?
Answer: > 42.4 µg/mL

Question: With `Cc1ccc(S(N)(=O)=O)cc1NC(=O)/C=C/c1ccc2c(c1)OCO2` as the compound, how does the solubility kinetic read?
Answer: 2.1 µg/mL (≈ 5.83 µM)

Question: For `Cc1ccc(/C=N/N2CCOCC2)s1`, which solubility kinetic is on record?
Answer: > 31.5 µg/mL

Question: Which solubility kinetic does the source give for `COc1ccc(OCCNC(=O)Nc2cc(F)c(F)cc2Cl)cc1` here?
Answer: < 0.4 µg/mL

Question: With `OC(CN1CCN(c2ccc(C(F)(F)F)cn2)CC1)c1ccccc1` (stereo not given) as the compound, how does the solubility kinetic read?
Answer: 1.8 µg/mL (≈ 5.12 µM)

Question: Which solubility kinetic does the source give for `O=C(Nc1cccs1)Nc1cccnc1Cl` here?
Answer: > 38.1 µg/mL

Question: Which solubility kinetic does the source give for `O=C(c1cccs1)N1CC=C(c2ccccc2)CC1` here?
Answer: 11.5 µg/mL (≈ 42.7 µM)

Question: Which solubility kinetic does the source give for `CCCC(CCC)C(=O)Nc1cccc(-c2cn3c(n2)SCC3)c1` here?
Answer: 4 µg/mL (≈ 11.6 µM)

Question: Which solubility kinetic does the source give for `CSc1ccccc1NS(=O)(=O)c1cccc2nonc12` here?
Answer: > 48.2 µg/mL

Question: With `CC(NC(=O)CN1CCN(c2ccccc2F)CC1)c1ccccc1` (stereo not given) as the compound, how does the solubility kinetic read?
Answer: 46.3 µg/mL (≈ 136 µM)

Question: With `COc1cccc2cc(C(=O)NC(C)c3ccccc3)c(=O)oc12` (stereo not given) as the compound, how does the solubility kinetic read?
Answer: < 0.7 µg/mL

Question: Which solubility kinetic does the source give for `COc1ccccc1NCCC(=O)OCC(=O)Nc1cc([N+](=O)[O-])ccc1F` here?
Answer: 51.8 µg/mL (≈ 132 µM)

Question: Which solubility kinetic does the source give for `Cc1ccc(NC(=O)C2CC(=O)N(C(C)c3ccccc3)C2)cc1` (stereo not given) here?
Answer: > 48.4 µg/mL

Question: Which solubility kinetic does the source give for `O=[N+]([O-])c1cc(Cl)ccc1Nc1ccccc1` here?
Answer: < 0.3 µg/mL

Question: With `CN(CCCC(=O)N1CCN(c2ncccn2)CC1)S(=O)(=O)c1ccc(F)cc1` as the compound, how does the solubility kinetic read?
Answer: > 63.2 µg/mL

Question: Which solubility kinetic does the source give for `CCOC(=O)Cn1cc(C#N)c(=O)[nH]c1=O` here?
Answer: > 33.5 µg/mL

Question: With `CSc1nc(-c2ccc(Cl)cc2)c(C#N)c(=O)n1C` as the compound, how does the solubility kinetic read?
Answer: < 0.2 µg/mL

Question: Which solubility kinetic does the source give for `Cc1c(C(=O)OCC(=O)N(C)Cc2ccccc2)oc2ccccc12` here?
Answer: 23.3 µg/mL (≈ 69.1 µM)

Question: For `O=C(Cc1ccccc1)c1c[nH]c(C(=O)NC2CCCC2)c1`, which solubility kinetic is on record?
Answer: 2.6 µg/mL (≈ 8.77 µM)

Question: With `CC(C(=O)NCc1cccnc1)c1ccc([N+](=O)[O-])cc1` (stereo not given) as the compound, how does the solubility kinetic read?
Answer: > 42.8 µg/mL

Question: Which solubility kinetic does the source give for `COc1cccc(NC(=O)c2nc(SC)ncc2Cl)c1` here?
Answer: 2.4 µg/mL (≈ 7.75 µM)

Question: For `Cn1nccc1C(=O)NC1CCN(Cc2ccccc2)CC1`, which solubility kinetic is on record?
Answer: > 44.8 µg/mL

Question: For `Cc1noc(C)c1S(=O)(=O)Nc1ccccc1Oc1ccccc1`, which solubility kinetic is on record?
Answer: 37.5 µg/mL (≈ 109 µM)

Question: Which solubility kinetic does the source give for `CCCC(=O)Nc1ccc(NCc2ccc(C)s2)cc1` here?
Answer: > 43.3 µg/mL

Question: Which solubility kinetic does the source give for `COc1ccc(CCNC(=O)c2ccc(Br)cc2)cc1` here?
Answer: 1.3 µg/mL (≈ 3.89 µM)

Question: For `CN(C)c1cccc(C(=O)OCC(=O)NC2CCCC2)c1`, which solubility kinetic is on record?
Answer: 36.6 µg/mL (≈ 126 µM)

Question: Which solubility kinetic does the source give for `COc1cccc(OCCNC(=O)Nc2cc(F)c(F)cc2Cl)c1` here?
Answer: < 0.4 µg/mL

Question: For `N#C/C(=C\c1ccncc1)c1nc2ccccc2[nH]1`, which solubility kinetic is on record?
Answer: 24.8 µg/mL (≈ 101 µM)

Question: Which solubility kinetic does the source give for `Cc1cc(=O)[nH]c(N2CCCNCC2)n1` here?
Answer: > 31.2 µg/mL

Question: Which solubility kinetic does the source give for `OCC1(CCOc2ccccc2)CCN(Cc2ccncc2)CC1` here?
Answer: 39 µg/mL (≈ 119 µM)

Question: With `Cc1cccc(N2C(=O)C(Cl)=C(N3CCOCC3)C2=O)c1` as the compound, how does the solubility kinetic read?
Answer: > 46 µg/mL

Question: For `O=C1CCCC(O)=C1C=NCc1ccccc1`, which solubility kinetic is on record?
Answer: > 34.4 µg/mL

Question: With `Cc1ccc(C)n1CCN1CCN(C(=O)c2ccc(Cl)cc2)CC1` as the compound, how does the solubility kinetic read?
Answer: 36.3 µg/mL (≈ 105 µM)

Question: For `CN(Cc1ccccc1)C(=O)c1ccc(COc2ccccc2)cc1`, which solubility kinetic is on record?
Answer: 4.5 µg/mL (≈ 13.6 µM)

Question: With `CC(C)(C)C(=O)N1CCN(c2ccc([N+](=O)[O-])cc2-n2cccc2)CC1` as the compound, how does the solubility kinetic read?
Answer: 1.4 µg/mL (≈ 3.93 µM)

Question: Which solubility kinetic does the source give for `O=C(CSc1nccc(=O)[nH]1)Nc1cccc2ccccc12` here?
Answer: > 46.7 µg/mL

Question: With `CC1CCN(C(=O)Cn2cc([N+](=O)[O-])ccc2=O)c2ccccc2S1` (stereo not given) as the compound, how does the solubility kinetic read?
Answer: > 53.9 µg/mL

Question: Which solubility kinetic does the source give for `Cc1csc(NC(=O)CSCC(=O)O)c1-c1nc2ccccc2s1` here?
Answer: 48.6 µg/mL (≈ 128 µM)

Question: For `COc1cc(Oc2ccccc2)nc(N)n1`, which solubility kinetic is on record?
Answer: > 32.6 µg/mL

Question: For `C=CCn1c(O)c(CN2CCCCC2)c(C)c(C#N)c1=O`, which solubility kinetic is on record?
Answer: > 43.1 µg/mL

Question: For `Cc1ccccc1NC(=O)COC(=O)CCSc1ccccc1`, which solubility kinetic is on record?
Answer: 13.1 µg/mL (≈ 39.8 µM)

Question: For `COC(=O)C1CN(C(=O)c2cccc(OC(F)F)c2)c2ccccc2O1` (stereo not given), which solubility kinetic is on record?
Answer: > 54.5 µg/mL

Question: For `O=C(COC(=O)c1c(Cl)cccc1Cl)NCC1CCCO1` (stereo not given), which solubility kinetic is on record?
Answer: > 49.8 µg/mL

Question: With `CC(NC(=O)N1CCOCC1)c1ccccc1` (stereo not given) as the compound, how does the solubility kinetic read?
Answer: > 35.1 µg/mL

Question: With `CC(C)N1CCN(Cc2ccc3c(c2)OCCO3)CC1CCO` (stereo not given) as the compound, how does the solubility kinetic read?
Answer: 45.5 µg/mL (≈ 142 µM)

Question: With `Cc1ccc(S(=O)(=O)NCCOc2cc(C)ccc2C)cc1` as the compound, how does the solubility kinetic read?
Answer: 14.4 µg/mL (≈ 45.1 µM)

Question: For `COc1ccc(CNC(C)Cc2cccs2)cc1` (stereo not given), which solubility kinetic is on record?
Answer: 30.4 µg/mL (≈ 116 µM)

Question: Which solubility kinetic does the source give for `COc1ccccc1NC(=O)NCCCCc1ccccc1` here?
Answer: 5.3 µg/mL (≈ 17.8 µM)

Question: Which solubility kinetic does the source give for `CCc1ccc(S(=O)(=O)NC2CCCCNC2=O)cc1` (stereo not given) here?
Answer: > 44.5 µg/mL

Question: Which solubility kinetic does the source give for `COc1ccc(C(=O)N2CCN(c3ncccn3)CC2)cc1[N+](=O)[O-]` here?
Answer: 50.5 µg/mL (≈ 147 µM)

Question: With `CCCCC(=O)Nc1cc(C)c(NC(=O)c2ccco2)cn1` as the compound, how does the solubility kinetic read?
Answer: > 45.2 µg/mL

Question: For `S=C(Nc1ccccc1)NC1CCN(Cc2ccccc2)CC1`, which solubility kinetic is on record?
Answer: > 48.8 µg/mL

Question: For `Nc1ccc(C(=O)OCc2nc3ccccc3s2)cc1`, which solubility kinetic is on record?
Answer: 27 µg/mL (≈ 95 µM)

Question: Which solubility kinetic does the source give for `O=C(Nc1ccccc1O)c1ccc2c(c1)C(=O)N(Cc1ccco1)C2=O` here?
Answer: 1.3 µg/mL (≈ 3.59 µM)

Question: For `Cc1ccc(/C=C/C(=O)O)cc1S(=O)(=O)N1CCCCC1`, which solubility kinetic is on record?
Answer: > 46.4 µg/mL

Question: For `O=C(c1ccc2ccccc2n1)N1CCN(S(=O)(=O)c2ccccc2)CC1`, which solubility kinetic is on record?
Answer: > 57.2 µg/mL

Question: For `CC1CCCCN1C(=O)COc1ccc2ccc(=O)oc2c1` (stereo not given), which solubility kinetic is on record?
Answer: 36.4 µg/mL (≈ 121 µM)

Question: Which solubility kinetic does the source give for `CCc1ccc(C(C)NC(=O)C2CCCO2)cc1` (stereo not given) here?
Answer: 34.9 µg/mL (≈ 141 µM)

Question: For `Cc1ccc(C(C)C)c(OCC(O)CNC2CCCC2)c1.Cl` (stereo not given), which solubility kinetic is on record?
Answer: > 49.2 µg/mL

Question: With `C[C@](N)(Cc1ccc(O)c(O)c1)C(=O)O` as the compound, how does the solubility kinetic read?
Answer: > 31.7 µg/mL

Question: Which solubility kinetic does the source give for `CN(CC(=O)Nc1cccc(F)c1)C(=O)c1sc2ccccc2c1Cl` here?
Answer: 23 µg/mL (≈ 61 µM)

Question: Which solubility kinetic does the source give for `Nc1cc(Cl)ccc1C(=O)OCC(=O)N1CCOCC1` here?
Answer: > 44.8 µg/mL

Question: With `Cc1noc(C(=O)Nc2cccc(Cl)c2)c1Cl` as the compound, how does the solubility kinetic read?
Answer: 2 µg/mL (≈ 7.38 µM)

Question: For `O=C(NCCOc1ccccc1)C(=O)c1c[nH]c2ccccc12`, which solubility kinetic is on record?
Answer: 0.9 µg/mL (≈ 2.92 µM)

Question: Which solubility kinetic does the source give for `O=C1c2ccccc2NC(c2cccc(O)c2)N1c1ccccc1` (stereo not given) here?
Answer: 2.9 µg/mL (≈ 9.17 µM)

Question: For `Cc1ccc(NC(=O)c2c(C)noc2C)cc1S(=O)(=O)N1CCOCC1`, which solubility kinetic is on record?
Answer: > 56.9 µg/mL

Question: For `CC(C)Cc1ccc(/C=C/C(=O)N2CCOCC2)cc1`, which solubility kinetic is on record?
Answer: > 41 µg/mL

Question: With `N#Cc1cccc(NC(=O)COC(=O)c2cc(S(=O)(=O)Nc3ccccc3Cl)ccc2O)c1` as the compound, how does the solubility kinetic read?
Answer: 40.4 µg/mL (≈ 83.1 µM)

Question: With `Cc1cccn2c(=O)c3cc(C(=O)NCC(C)C)sc3nc12` as the compound, how does the solubility kinetic read?
Answer: 1.2 µg/mL (≈ 3.8 µM)

Question: Which solubility kinetic does the source give for `N#C/C(=C\c1ccc(O)c(Br)c1)C(=O)N1CCCCC1` here?
Answer: > 50.3 µg/mL

Question: With `O=C(NN1C(=O)NC2(CCCCC2)C1=O)c1cccs1` as the compound, how does the solubility kinetic read?
Answer: > 44 µg/mL

Question: For `COc1ccc(CCN(C)C2CCCN(S(C)(=O)=O)C2)cc1OC` (stereo not given), which solubility kinetic is on record?
Answer: > 53.5 µg/mL

Question: For `COc1ccc(/C=C/C(=O)O)cc1S(=O)(=O)NCC1CCCO1` (stereo not given), which solubility kinetic is on record?
Answer: 41.3 µg/mL (≈ 121 µM)

Question: For `O=C(COC(=O)COc1ccccc1[N+](=O)[O-])NCc1ccc2c(c1)OCO2`, which solubility kinetic is on record?
Answer: > 58.2 µg/mL

Question: Which solubility kinetic does the source give for `COc1ccc(C(=O)NC(CCSC)C(=O)NC2CC2)cc1` (stereo not given) here?
Answer: > 48.4 µg/mL

Question: With `Cc1ccc(NC(=O)CN(C)C(=O)c2ccc(NS(=O)(=O)c3cccc([N+](=O)[O-])c3)cc2)cc1` as the compound, how does the solubility kinetic read?
Answer: 11.6 µg/mL (≈ 24 µM)

Question: Which solubility kinetic does the source give for `COc1ccc(N=Cc2c(O)n(C)c(=O)[nH]c2=O)cc1` here?
Answer: 2.2 µg/mL (≈ 7.99 µM)

Question: Which solubility kinetic does the source give for `N#Cc1cccc(NC(=O)CNC(=O)Cc2ccccc2)c1` here?
Answer: 42.1 µg/mL (≈ 144 µM)

Question: Which solubility kinetic does the source give for `CC(C)Sc1sc(C(=O)O)c(-c2ccc(Cl)cc2)c1C#N` here?
Answer: > 50.7 µg/mL

Question: For `COc1ccc(CCC(=O)Nc2nccs2)cc1OC`, which solubility kinetic is on record?
Answer: > 43.9 µg/mL

Question: For `Cc1ccc(S(=O)(=O)Nc2ncnc3ccccc23)cc1`, which solubility kinetic is on record?
Answer: > 44.9 µg/mL

Question: Which solubility kinetic does the source give for `COc1cc(CNCC2CCCO2)ccc1OCC(N)=O.Cl` (stereo not given) here?
Answer: 49 µg/mL

Question: For `O=C1CCCN1CC1CCN(Cc2nc(CC3CC3)no2)CC1`, which solubility kinetic is on record?
Answer: 42.9 µg/mL (≈ 135 µM)
